# According to ChEMBL document CHEMBL1157927, “Identification and structure-activity relationship of 8-hydroxy-quinoline-7-carboxylic acid derivatives as inhibitors of Pim-1 kinase” (Bioorg Med Chem Lett, 2010):
# Assays:
# [1] = biological target: T1, Serine/threonine-protein kinase pim-1 (Homo sapiens, UniProt P11309); experiment: Inhibition of PIM1
# Target sequence in this assay (P11309 whole entry): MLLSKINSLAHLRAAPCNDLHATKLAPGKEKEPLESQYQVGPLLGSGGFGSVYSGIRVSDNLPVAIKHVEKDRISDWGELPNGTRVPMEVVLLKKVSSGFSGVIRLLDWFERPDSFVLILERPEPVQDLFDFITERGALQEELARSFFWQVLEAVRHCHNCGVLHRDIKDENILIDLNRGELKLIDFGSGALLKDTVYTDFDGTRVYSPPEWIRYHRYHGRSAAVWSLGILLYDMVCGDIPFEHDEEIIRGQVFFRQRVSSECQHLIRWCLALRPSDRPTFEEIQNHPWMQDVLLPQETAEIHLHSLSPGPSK
# [2] = biological target: T1, Serine/threonine-protein kinase pim-1; experiment: Inhibition of PIM1 at 10 uM
# Target sequence in this assay (P11309 whole entry, looked up): as the sequence (P11309 whole entry) above
# [3] = biological target: Cyclin-dependent kinase 1/cyclin B1 (Homo sapiens, UniProt P06493); experiment: Inhibition of CDK1/cyclin B; assay type: protein-complex assay
# [4] = biological target: Cyclin-dependent kinase 5/CDK5 activator 1 (Homo sapiens, UniProt Q00535); experiment: Inhibition of CDK5/P25; assay type: protein-complex assay
# [5] = biological target: Dual specificity tyrosine-phosphorylation-regulated kinase 1A (Mus musculus, UniProt Q61214); experiment: Inhibition of mouse DYRK1A expressed in Escherichia coli after 20 mins
# [6] = biological target: T2, Dual specificity tyrosine-phosphorylation-regulated kinase 2 (Homo sapiens, UniProt Q92630); experiment: Inhibition of DYRK2
# T2 sequence (Q92630 whole entry): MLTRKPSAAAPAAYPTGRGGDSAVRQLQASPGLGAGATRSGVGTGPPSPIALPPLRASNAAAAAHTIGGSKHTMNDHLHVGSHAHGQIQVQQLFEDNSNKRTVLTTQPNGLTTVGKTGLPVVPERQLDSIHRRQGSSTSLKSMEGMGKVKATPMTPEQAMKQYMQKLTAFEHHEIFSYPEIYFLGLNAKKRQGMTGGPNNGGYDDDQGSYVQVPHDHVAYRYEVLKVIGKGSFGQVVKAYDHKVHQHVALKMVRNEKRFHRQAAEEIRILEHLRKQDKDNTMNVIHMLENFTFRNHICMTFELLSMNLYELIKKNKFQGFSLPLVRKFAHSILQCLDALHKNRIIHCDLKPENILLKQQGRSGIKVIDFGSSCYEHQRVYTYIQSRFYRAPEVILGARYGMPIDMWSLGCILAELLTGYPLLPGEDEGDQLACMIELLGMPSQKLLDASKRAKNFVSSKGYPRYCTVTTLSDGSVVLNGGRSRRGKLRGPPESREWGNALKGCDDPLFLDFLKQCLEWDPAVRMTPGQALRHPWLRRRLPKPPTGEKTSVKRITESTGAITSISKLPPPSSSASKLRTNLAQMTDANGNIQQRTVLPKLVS
# CDK1/Cyclin A = CDK1/Cyclin A (Homo sapiens, UniProt P06493); experiment: Inhibition of CDK1/Cyclin A; assay type: protein-complex assay
# [7] = biological target: Casein kinase I isoform alpha (Homo sapiens, UniProt P48729); experiment: Inhibition of CK1
# [8] = biological target: Dual specificity protein kinase CLK1 (Homo sapiens, UniProt P49759); experiment: Inhibition of CLK1
# [9] = biological target: Glycogen synthase kinase-3 (Homo sapiens, UniProt P49840+P49841); experiment: Inhibition of GSK3alpha/beta; assay type: protein assay
# Casein kinase I isoform alpha, sequence (P48729 whole entry, canonical isoform): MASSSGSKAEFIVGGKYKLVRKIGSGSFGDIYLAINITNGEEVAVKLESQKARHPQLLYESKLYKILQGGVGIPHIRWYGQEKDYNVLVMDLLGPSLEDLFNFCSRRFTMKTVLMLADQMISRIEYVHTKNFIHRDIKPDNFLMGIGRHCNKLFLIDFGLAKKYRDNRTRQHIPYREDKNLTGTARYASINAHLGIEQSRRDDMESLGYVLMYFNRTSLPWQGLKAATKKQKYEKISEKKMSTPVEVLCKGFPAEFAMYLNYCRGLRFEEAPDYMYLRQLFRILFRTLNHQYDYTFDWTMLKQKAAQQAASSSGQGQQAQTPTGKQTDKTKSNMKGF
# Cyclin-dependent kinase 5/CDK5 activator 1, sequence (Q00535 whole entry): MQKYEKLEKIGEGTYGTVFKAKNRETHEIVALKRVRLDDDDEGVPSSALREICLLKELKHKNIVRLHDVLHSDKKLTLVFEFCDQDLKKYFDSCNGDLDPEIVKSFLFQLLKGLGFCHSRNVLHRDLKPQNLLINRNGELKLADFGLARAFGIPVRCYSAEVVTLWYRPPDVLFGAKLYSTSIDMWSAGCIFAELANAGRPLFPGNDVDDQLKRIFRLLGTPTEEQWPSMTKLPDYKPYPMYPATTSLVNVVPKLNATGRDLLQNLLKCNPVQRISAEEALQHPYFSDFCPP
# Cyclin-dependent kinase 5/CDK5 activator 1, sequence (Q15078 whole entry, further chain): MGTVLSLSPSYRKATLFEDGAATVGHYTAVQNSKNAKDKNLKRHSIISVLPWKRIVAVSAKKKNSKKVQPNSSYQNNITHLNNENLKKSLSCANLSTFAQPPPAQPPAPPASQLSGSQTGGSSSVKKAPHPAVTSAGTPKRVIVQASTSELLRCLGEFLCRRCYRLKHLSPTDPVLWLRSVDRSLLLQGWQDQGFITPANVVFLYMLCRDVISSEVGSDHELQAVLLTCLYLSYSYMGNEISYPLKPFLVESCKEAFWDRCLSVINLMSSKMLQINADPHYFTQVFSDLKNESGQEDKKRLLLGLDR
# CDK1/Cyclin A, sequence (P06493 whole entry, canonical isoform): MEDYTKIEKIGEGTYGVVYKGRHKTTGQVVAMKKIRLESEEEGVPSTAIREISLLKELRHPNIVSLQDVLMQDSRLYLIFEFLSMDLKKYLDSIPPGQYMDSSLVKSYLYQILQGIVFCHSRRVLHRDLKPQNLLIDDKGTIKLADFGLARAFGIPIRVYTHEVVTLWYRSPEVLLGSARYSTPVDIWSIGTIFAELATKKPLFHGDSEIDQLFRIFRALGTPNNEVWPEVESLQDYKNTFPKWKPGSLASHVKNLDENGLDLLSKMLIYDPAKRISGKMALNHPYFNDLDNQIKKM
# CDK1/Cyclin A, sequence (P20248 whole entry, further chain, canonical isoform): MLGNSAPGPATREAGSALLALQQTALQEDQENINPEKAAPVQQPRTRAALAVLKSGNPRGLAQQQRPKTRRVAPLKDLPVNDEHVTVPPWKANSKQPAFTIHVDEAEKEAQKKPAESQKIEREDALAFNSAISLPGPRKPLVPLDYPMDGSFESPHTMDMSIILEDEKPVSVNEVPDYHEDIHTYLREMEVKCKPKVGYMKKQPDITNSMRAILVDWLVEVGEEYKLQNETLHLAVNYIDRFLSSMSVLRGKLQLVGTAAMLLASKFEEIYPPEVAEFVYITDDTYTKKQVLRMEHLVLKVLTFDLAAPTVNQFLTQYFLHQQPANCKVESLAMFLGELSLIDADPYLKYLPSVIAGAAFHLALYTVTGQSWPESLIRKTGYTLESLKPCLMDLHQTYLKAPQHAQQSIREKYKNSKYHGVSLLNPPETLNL
# Cyclin-dependent kinase 1/cyclin B1, sequence (P06493 whole entry): as the sequence (P06493 whole entry, canonical isoform) above
# Cyclin-dependent kinase 1/cyclin B1, sequence (P14635 whole entry, further chain): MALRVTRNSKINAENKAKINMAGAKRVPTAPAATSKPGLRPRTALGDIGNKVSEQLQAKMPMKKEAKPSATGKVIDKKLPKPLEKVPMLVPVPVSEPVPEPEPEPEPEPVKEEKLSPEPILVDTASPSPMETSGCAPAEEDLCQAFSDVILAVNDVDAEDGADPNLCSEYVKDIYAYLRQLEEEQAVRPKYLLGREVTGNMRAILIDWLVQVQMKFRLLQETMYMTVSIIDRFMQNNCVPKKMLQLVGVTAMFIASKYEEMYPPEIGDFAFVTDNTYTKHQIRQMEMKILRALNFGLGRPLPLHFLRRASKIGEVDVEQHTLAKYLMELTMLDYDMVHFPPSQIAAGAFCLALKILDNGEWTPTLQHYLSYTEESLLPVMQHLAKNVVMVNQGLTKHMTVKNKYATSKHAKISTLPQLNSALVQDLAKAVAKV
# Dual specificity protein kinase CLK1, sequence (P49759 whole entry): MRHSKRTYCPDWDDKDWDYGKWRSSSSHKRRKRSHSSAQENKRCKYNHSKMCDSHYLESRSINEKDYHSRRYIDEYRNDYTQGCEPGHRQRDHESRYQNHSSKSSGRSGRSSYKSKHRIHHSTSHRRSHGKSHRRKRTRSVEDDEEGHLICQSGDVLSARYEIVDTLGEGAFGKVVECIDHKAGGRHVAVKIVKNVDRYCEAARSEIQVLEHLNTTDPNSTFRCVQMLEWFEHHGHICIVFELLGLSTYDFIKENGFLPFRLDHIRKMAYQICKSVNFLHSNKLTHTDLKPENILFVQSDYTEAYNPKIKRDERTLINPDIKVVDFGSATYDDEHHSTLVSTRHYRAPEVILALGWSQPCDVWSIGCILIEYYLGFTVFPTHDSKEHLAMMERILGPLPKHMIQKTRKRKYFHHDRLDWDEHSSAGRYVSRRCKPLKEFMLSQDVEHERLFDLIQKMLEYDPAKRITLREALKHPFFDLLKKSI
IC50 [1] [µM],inhibition [2] [%],Compound,further results
2,–,COc1ccc(CNC(=O)Nc2ccc3ccc(C(=O)O)c(O)c3n2)cc1,–
0.5,–,O=C(O)c1ccc2ccc(/C=C/c3ccc(O)cc3O)nc2c1O,–
4.5,–,O=C(O)c1ccc2ccc(/C=C/c3ccc(F)c(F)c3)nc2c1O,–
> 10,> 50,Oc1ccc(/C=C/c2ccc3cccc(O)c3n2)cc1O,–
4,–,Nc1ccc(/C=C/c2ccc3ccc(C(=O)O)c(O)c3n2)cc1,–
2.8,–,COc1cc(/C=C/c2ccc3ccc(C(=O)O)c(O)c3n2)cc([N+](=O)[O-])c1O,–
5.5,–,O=C(O)c1ccc2ccc(/C=C/c3cc(O)c(O)c(O)c3)nc2c1O,–
0.5,–,COc1ccc(/C=C/c2ccc3ccc(C(=O)O)c(O)c3n2)cc1O,IC50 [3]: > 10 µM; IC50 [4]: > 10 µM; IC50 [5]: 1.3 µM; IC50 [6]: 1.1 µM; IC50 (CDK1/Cyclin A): > 10 µM; IC50 [7]: > 10 µM; IC50 [8]: 8.3 µM; IC50 [9]: > 10 µM
> 10,> 50,Cc1ccc2c(-c3ccccc3)cc(C(=O)O)c(O)c2n1,–
> 10,> 50,O=C(O)c1cccc2ccc(/C=C/c3ccc(O)c(O)c3)nc12,–
3.1,–,COc1cc(/C=C/c2ccc3ccc(C(=O)O)c(O)c3n2)cc(O)c1O,–
5,> 50,O=C(O)c1ccc2ccc(CCc3ccc(O)c(O)c3)nc2c1O,–
> 10,> 50,O=C(NCc1ccc(O)cc1)c1ccc2cccc(C(=O)O)c2n1,–
> 10,< 50,O=C(O)c1ccc(O)c2nc(/C=C/c3ccc(O)c(O)c3)ccc12,–
5.1,–,O=C(NNc1ccccc1)c1ccc2ccc(C(=O)O)c(O)c2n1,–
2.8,–,O=C(NCc1cccc(O)c1O)c1ccc2ccc(C(=O)O)c(O)c2n1,–
3.4,–,O=C(O)c1ccc2ccc(/C=C/c3ccc([N+](=O)[O-])cc3)nc2c1O,–
3.3,–,COc1cc(CNC(=O)c2ccc3ccc(C(=O)O)c(O)c3n2)cc(O)c1O,–
> 10,< 50,O=C(c1ccncc1)c1ccc2ccc(/C=C/c3ccc(O)c(O)c3)nc2c1O,–
1.7,> 50,O=C(O)c1ccc2ccc(/C=C/c3ccc(O)c(O)c3)nc2c1O,–
0.6,–,O=C(NCc1cc(O)cc(O)c1)c1ccc2ccc(C(=O)O)c(O)c2n1,–

IC50 [1] [µM],inhibition [2] [%],Compound,further results
2.1,–,O=C(O)c1ccc2ccc(/C=C/c3cc(Br)c(O)c(Br)c3)nc2c1O,–
3.1,–,O=C(O)c1cc(/C=C/c2ccc3ccc(C(=O)O)c(O)c3n2)ccc1O,–
0.2,–,O=C(NCc1ccc(O)cc1O)c1ccc2ccc(C(=O)O)c(O)c2n1,IC50 [3]: > 10 µM; IC50 [4]: > 10 µM; IC50 [5]: 4.5 µM; IC50 [6]: 6.3 µM; IC50 (CDK1/Cyclin A): > 10 µM; IC50 [7]: > 10 µM; IC50 [8]: > 10 µM; IC50 [9]: > 10 µM
> 10,> 50,Cc1ccc2cccc(NS(C)(=O)=O)c2n1,–
3,–,O=C(NNc1ccc([N+](=O)[O-])cc1[N+](=O)[O-])c1ccc2ccc(C(=O)O)c(O)c2n1,–
3,–,O=C(O)c1ccc2ccc(/C=C/c3ccc4c(c3)OCO4)nc2c1O,–
> 10,> 50,Cc1ccc2cccc(C(=O)O)c2n1,–
0.5,–,O=C(NCc1ccc(O)c(O)c1)Nc1ccc2ccc(C(=O)O)c(O)c2n1,–
0.4,–,O=C(O)c1ccc2ccc(/C=C/c3cc(O)cc(O)c3)nc2c1O,–
1,–,O=C(Nc1ccc(O)c(O)c1)Nc1ccc2ccc(C(=O)O)c(O)c2n1,–
> 10,> 50,O=C(NCc1ccc(O)c(O)c1)c1ccc2c(Cl)cc(Cl)c(O)c2n1,–
4.5,–,COc1cc(/C=C/c2ccc3ccc(C(=O)O)c(O)c3n2)cc(Cl)c1O,–
2.5,–,COc1cc(/C=C/c2ccc3ccc(C(=O)O)c(O)c3n2)cc(OC)c1O,–
3.2,–,O=C(O)c1ccc2ccc(/C=C/c3ccccc3)nc2c1O,–
2.1,> 50,O=C(NCc1ccc(O)c(O)c1)c1ccc2ccc(C(=O)O)c(O)c2n1,–
1,–,COc1cc(NC(=O)c2ccc3ccc(C(=O)O)c(O)c3n2)cc(O)c1O,–
> 10,> 50,Cc1ccc2ccc(C(=O)O)c(O)c2n1,–
0.7,–,O=C(O)c1ccc2ccc(/C=C/c3ccc(O)cc3)nc2c1O,–
7,–,O=C(O)c1ccc2ccc(/C=C/c3cccc(O)c3O)nc2c1O,–
2,–,COc1cc(/C=C/c2ccc3ccc(C(=O)O)c(O)c3n2)ccc1O,–
